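Grown in 96-well plates, cells were treated for 48 hours with each compound at five concentrations. Insufficient inhibition: endpoint recorded as highest concentration tested. At the GI50, growth is halved.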 Active and inactive are the calls of the source. Rule as the data show it: active = GI50 up to about 1.1 µM and inactive = higher.
Key:
Test in all cases: growth of human tumour cells (NCI), 48 h
786-0 = tested on: 786-0
A549 = tested on: A549
ACHN = tested on: ACHN
BT-549 = tested on: BT-549
CAKI-1 = tested on: CAKI-1
CCRF-CEM = tested on: CCRF-CEM
COLO 205 = tested on: COLO 205
DU-145 = tested on: DU-145
EKVX = tested on: EKVX
HCC 2998 = tested on: HCC 2998
HCT-116 = tested on: HCT-116
HCT-15 = tested on: HCT-15
HL-60 = tested on: HL-60
HOP-62 = tested on: HOP-62
HOP-92 = tested on: HOP-92
HT-29 = tested on: HT-29
Hs-578T = tested on: Hs-578T
IGROV-1 = tested on: IGROV-1
K562 = tested on: K562
KM12 = tested on: KM12
LOX IMVI = tested on: LOX IMVI
M14 = tested on: M14
MCF7 = tested on: MCF7
MDA-MB-231 = tested on: MDA-MB-231
MDA-MB-435 = tested on: MDA-MB-435
MDA-N = tested on: MDA-N
MOLT-4 = tested on: MOLT-4
Malme-3M = tested on: Malme-3M
NCI-H226 = tested on: NCI-H226
NCI-H23 = tested on: NCI-H23
NCI-H460 = tested on: NCI-H460
NCI-H522 = tested on: NCI-H522
NCI/ADR-RES = tested on: NCI/ADR-RES
OVCAR-3 = tested on: OVCAR-3
OVCAR-4 = tested on: OVCAR-4
OVCAR-5 = tested on: OVCAR-5
OVCAR-8 = tested on: OVCAR-8
PC-3 = tested on: PC-3
RPMI-8226 = tested on: RPMI-8226
RXF 393 = tested on: RXF 393
SF-268 = tested on: SF-268
SF-295 = tested on: SF-295
SK-MEL-28 = tested on: SK-MEL-28
SK-MEL-5 = tested on: SK-MEL-5
SK-OV-3 = tested on: SK-OV-3
SN12C = tested on: SN12C
SNB-19 = tested on: SNB-19
SNB-75 = tested on: SNB-75
SR = tested on: SR
SW-620 = tested on: SW-620
T47D = tested on: T47D
TK-10 = tested on: TK-10
U-251 = tested on: U-251
UACC-62 = tested on: UACC-62
UO-31 = tested on: UO-31
SF-539 = tested on: SF-539
SK-MEL-2 = tested on: SK-MEL-2
UACC-257 = tested on: UACC-257

SMILES: CC(=O)NC(Cc1c[nH]cn1)C(=O)N1CCCC1C(N)=O (stereo not drawn)
- GI50 (786-0): > 100 µM (inactive)
- GI50 (A549): > 100 µM (inactive)
- GI50 (ACHN): > 100 µM (inactive)
- GI50 (BT-549): > 100 µM (inactive)
- GI50 (CAKI-1): > 100 µM (inactive)
- GI50 (CCRF-CEM): > 100 µM (inactive)
- GI50 (COLO 205): > 100 µM (inactive)
- GI50 (DU-145): > 100 µM (inactive)
- GI50 (EKVX): > 100 µM (inactive)
- GI50 (HCC 2998): > 100 µM (inactive)
- GI50 (HCT-116): > 100 µM (inactive)
- GI50 (HCT-15): > 100 µM
- GI50 (HL-60): > 100 µM (inactive)
- GI50 (HOP-62): > 100 µM (inactive)
- GI50 (HOP-92): > 100 µM (inactive)
- GI50 (HT-29): > 100 µM (inactive)
- GI50 (Hs-578T): > 100 µM (inactive)
- GI50 (IGROV-1): > 100 µM (inactive)
- GI50 (K562): > 100 µM (inactive)
- GI50 (KM12): > 100 µM (inactive)
- GI50 (LOX IMVI): > 100 µM (inactive)
- GI50 (M14): > 100 µM (inactive)
- GI50 (MCF7): > 100 µM (inactive)
- GI50 (MDA-MB-231): > 100 µM (inactive)
- GI50 (MDA-MB-435): > 100 µM (inactive)
- GI50 (MDA-N): > 100 µM (inactive)
- GI50 (MOLT-4): > 100 µM (inactive)
- GI50 (Malme-3M): > 100 µM (inactive)
- GI50 (NCI-H226): > 100 µM (inactive)
- GI50 (NCI-H23): > 100 µM (inactive)
- GI50 (NCI-H460): > 100 µM (inactive)
- GI50 (NCI-H522): > 100 µM (inactive)
- GI50 (NCI/ADR-RES): > 100 µM (inactive)
- GI50 (OVCAR-3): > 100 µM (inactive)
- GI50 (OVCAR-4): > 100 µM (inactive)
- GI50 (OVCAR-5): > 100 µM (inactive)
- GI50 (OVCAR-8): > 100 µM (inactive)
- GI50 (PC-3): > 100 µM (inactive)
- GI50 (RPMI-8226): > 100 µM (inactive)
- GI50 (RXF 393): > 100 µM (inactive)
- GI50 (SF-268): > 100 µM (inactive)
- GI50 (SF-295): > 100 µM (inactive)
- GI50 (SK-MEL-28): > 100 µM (inactive)
- GI50 (SK-MEL-5): > 100 µM (inactive)
- GI50 (SK-OV-3): > 100 µM (inactive)
- GI50 (SN12C): > 100 µM (inactive)
- GI50 (SNB-19): > 100 µM (inactive)
- GI50 (SNB-75): > 100 µM (inactive)
- GI50 (SR): > 100 µM (inactive)
- GI50 (SW-620): > 100 µM (inactive)
- GI50 (T47D): > 100 µM (inactive)
- GI50 (TK-10): > 100 µM (inactive)
- GI50 (U-251): > 100 µM (inactive)
- GI50 (UACC-62): > 100 µM (inactive)
- GI50 (UO-31): > 100 µM (inactive)

SMILES: O=C(c1ccco1)N1CCN(C(=O)c2ccco2)C1=S
- GI50 (786-0): 3.28 µM (inactive)
- GI50 (A549): 7.74 µM (inactive)
- GI50 (ACHN): 8.07 µM (inactive)
- GI50 (BT-549): 8.47 µM (inactive)
- GI50 (CAKI-1): 4.72 µM (inactive)
- GI50 (CCRF-CEM): 1.77 µM (inactive)
- GI50 (COLO 205): 6.81 µM (inactive)
- GI50 (DU-145): 2.61 µM (inactive)
- GI50 (EKVX): 16.1 µM (inactive)
- GI50 (HCC 2998): 12.4 µM (inactive)
- GI50 (HCT-116): 9.86 µM (inactive)
- GI50 (HCT-15): 6.24 µM
- GI50 (HL-60): 3.42 µM (inactive)
- GI50 (HOP-62): 10.6 µM (inactive)
- GI50 (HOP-92): 7.23 µM (inactive)
- GI50 (HT-29): 8.05 µM (inactive)
- GI50 (Hs-578T): 20.7 µM (inactive)
- GI50 (IGROV-1): 9.64 µM (inactive)
- GI50 (K562): 1.87 µM (inactive)
- GI50 (KM12): 3.93 µM (inactive)
- GI50 (LOX IMVI): 3.59 µM (inactive)
- GI50 (M14): 6.22 µM (inactive)
- GI50 (MCF7): 2.99 µM (inactive)
- GI50 (MDA-MB-231): 11.6 µM (inactive)
- GI50 (MDA-MB-435): 3.59 µM (inactive)
- GI50 (MDA-N): 4.7 µM (inactive)
- GI50 (MOLT-4): 1.42 µM (inactive)
- GI50 (Malme-3M): 6.07 µM (inactive)
- GI50 (NCI-H226): 28.7 µM (inactive)
- GI50 (NCI-H23): 18.4 µM (inactive)
- GI50 (NCI-H460): 8.73 µM (inactive)
- GI50 (NCI-H522): 3.91 µM (inactive)
- GI50 (NCI/ADR-RES): 21.1 µM (inactive)
- GI50 (OVCAR-3): 3.44 µM (inactive)
- GI50 (OVCAR-4): 17.1 µM (inactive)
- GI50 (OVCAR-5): 20.3 µM (inactive)
- GI50 (OVCAR-8): 11 µM (inactive)
- GI50 (PC-3): 4.78 µM (inactive)
- GI50 (RPMI-8226): 2.02 µM (inactive)
- GI50 (RXF 393): 2.88 µM (inactive)
- GI50 (SF-268): 6.01 µM (inactive)
- GI50 (SF-295): 18.5 µM (inactive)
- GI50 (SF-539): 3.33 µM (inactive)
- GI50 (SK-MEL-28): 5.87 µM (inactive)
- GI50 (SK-MEL-2): 13 µM (inactive)
- GI50 (SK-MEL-5): 10.1 µM (inactive)
- GI50 (SK-OV-3): 17.3 µM (inactive)
- GI50 (SN12C): 4.18 µM (inactive)
- GI50 (SNB-19): 24.4 µM (inactive)
- GI50 (SNB-75): 10.4 µM (inactive)
- GI50 (SR): 1.79 µM (inactive)
- GI50 (SW-620): 5.66 µM (inactive)
- GI50 (T47D): 4.78 µM (inactive)
- GI50 (TK-10): 6.31 µM (inactive)
- GI50 (U-251): 10 µM (inactive)
- GI50 (UACC-257): 4.9 µM (inactive)
- GI50 (UACC-62): 6.34 µM (inactive)
- GI50 (UO-31): 3.68 µM (inactive)

Source: ChEMBL document CHEMBL1201862, “PubChem BioAssay data set” (2004)
